In PubChem BioAssay (NCI):
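Five compound concentrations were applied to cells in 96-well plates for 48 hours; endpoints were derived by simple linear interpolation of the resulting dose-response curve. TGI: concentration producing complete growth inhibition.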

Experiments:
Experiment in all cases: DTP human tumour cell line panel, 48 h
786-0 renal = test system: 786-0 renal
NCI-H23 lung = test system: NCI-H23 lung
TK-10 renal = test system: TK-10 renal
SNB-78 CNS = test system: SNB-78 CNS
CAKI-1 renal = test system: CAKI-1 renal
OVCAR-3 ovarian = test system: OVCAR-3 ovarian
HCT-116 colon = test system: HCT-116 colon
UO-31 renal = test system: UO-31 renal
UACC-257 melanoma = test system: UACC-257 melanoma
HCC-2998 colon = test system: HCC-2998 colon
SF-268 CNS = test system: SF-268 CNS
M19-MEL melanoma = test system: M19-MEL melanoma
SN12C renal = test system: SN12C renal
A549 NSCLC = test system: A549 NSCLC
HOP-62 NSCLC = test system: HOP-62 NSCLC
HOP-92 NSCLC = test system: HOP-92 NSCLC
COLO 205 colon = test system: COLO 205 colon
SW-620 colon = test system: SW-620 colon
SF-539 CNS = test system: SF-539 CNS
KM20L2 colon = test system: KM20L2 colon
NCI-H460 lung = test system: NCI-H460 lung
SR leukemia = test system: SR leukemia
MOLT-4 leukemia = test system: MOLT-4 leukemia
NCI-H522 lung = test system: NCI-H522 lung
MALME-3M melanoma = test system: MALME-3M melanoma
DMS 114 small cell lung = test system: DMS 114 small cell lung
SK-OV-3 ovarian = test system: SK-OV-3 ovarian
OVCAR-4 ovarian = test system: OVCAR-4 ovarian
NCI-H226 lung = test system: NCI-H226 lung
U251 CNS = test system: U251 CNS
HCT-15 colon = test system: HCT-15 colon
ACHN renal = test system: ACHN renal
OVCAR-5 ovarian = test system: OVCAR-5 ovarian
CCRF-CEM leukemia = test system: CCRF-CEM leukemia
DMS 273 small cell lung = test system: DMS 273 small cell lung
KM12 colon = test system: KM12 colon
RPMI-8226 leukemia = test system: RPMI-8226 leukemia
M14 melanoma = test system: M14 melanoma
IGROV1 ovarian = test system: IGROV1 ovarian
UACC-62 melanoma = test system: UACC-62 melanoma
K-562 leukemia = test system: K-562 leukemia
OVCAR-8 ovarian = test system: OVCAR-8 ovarian
HT29 colon = test system: HT29 colon
SK-MEL-28 melanoma = test system: SK-MEL-28 melanoma
SK-MEL-2 melanoma = test system: SK-MEL-2 melanoma
LOX IMVI melanoma = test system: LOX IMVI melanoma
RXF 393 renal = test system: RXF 393 renal
A498 renal = test system: A498 renal
SF-295 CNS = test system: SF-295 CNS
HL-60(TB) leukemia = test system: HL-60(TB) leukemia
EKVX NSCLC = test system: EKVX NSCLC
SNB-19 CNS = test system: SNB-19 CNS
BT-549 breast = test system: BT-549 breast
SK-MEL-5 melanoma = test system: SK-MEL-5 melanoma
HS 578T breast = test system: HS 578T breast
PC-3 prostate = test system: PC-3 prostate
T-47D breast = test system: T-47D breast
MDA-MB-435 = test system: MDA-MB-435
SNB-75 CNS = test system: SNB-75 CNS
MCF7 breast = test system: MCF7 breast
NCI/ADR-RES ovarian = test system: NCI/ADR-RES ovarian
DU-145 prostate = test system: DU-145 prostate
MDA-MB-231 breast = test system: MDA-MB-231 breast
MDA-N = test system: MDA-N

Measured: TGI

N#Cc1cccc(C=NC23CC4CC(CC(C4)C2)C3)c1
42.2 µM: HL-60(TB) leukemia
not listed: BT-549 breast | SK-MEL-5 melanoma | HS 578T breast | PC-3 prostate | T-47D breast | MDA-MB-435 | SNB-75 CNS | MCF7 breast | NCI/ADR-RES ovarian | DU-145 prostate | MDA-MB-231 breast | MDA-N
> 100 µM: all other assays above

O=C(NO)NCCCl
not listed: SNB-78 CNS | M19-MEL melanoma | KM20L2 colon | DMS 114 small cell lung | DMS 273 small cell lung | SK-MEL-28 melanoma
> 100 µM: all other assays above
